“Also recorded” adds a separate entry of the source.
Tests used:
Type in all cases: cell-based
[1] = test system: Heterogeneous IM preadipocytes; assay: GPDH activity in heterogeneous bovine IM preadipocytes, IBU, aspirin or indomethacin for 12 days (Example 5)
Experimental: (§1) Preadipocytes from IM and SC adipose tissue were isolated using a modification of Forest et al., 1987, Exp. Cell Res. 168:218-232. Cells were seeded at a density of 4,160 cells/cm^2 in 35 mm cell culture wells in DMEM with 5.5 mM glucose, supplemented with 100 units/ml penicillin G, 0.1 mg/ml streptomycin sulfate, 0.25 μg/ml amphotericin B, 0.05 mg/ml gentamicin, 33 μM biotin, 17 μM pantothenate, 200 μM ascorbate, 1 mM octanoate, and 10% fetal bovine serum. The cells were grown in a 37° C./5% CO2 incubator. Growth media was replaced every two days until the cells reached confluency (approximately 4 days), at which point the cells were washed twice with phosphate buffered saline (PBS) and differentiation treatments were applied. The differentiation medium consisted of DMEM with 5.5 mM glucose, 100 units/ml penicillin G, 0.1 mg/ml streptomycin sulfate, 0.25 μg/ml amphotericin B, 0.05 mg/ml gentamicin, 33 μM biotin, 17 μM pantothenate, 200 μM ascorbate, 280 nM bovine insulin, and 5 μl/ml bovine serum lipids (Ex-Cyte, Serologicals Corp., Norcross, Ga.). After 48 hours of differentiation media exposure, the cells were washed twice with PBS and differentiation media was replaced every two days for 10 days. Glycerol-3-phosphate dehydrogenase (GPDH) activity was quantified biochemically by measuring GPDH enzyme activity using a modification of a previously published method (Adams et al., J. Clin. Invest. 100:3149-3153). […] Media was changed every two days as previously described until day 12. Adipogenesis was quantitated by measuring GPDH activity. Data were analyzed using the mixed model procedure of SAS (SAS, Cary, N.C.). In all experiments, pooled cells from two wells of a 6 well (35 mm) plate were considered the experimental unit. When main effects were significant (P<0.05), differences between means were evaluated utilizing Tukey's multiple comparison test. […] To satisfy the conditions of normality and homogeneity of variance, GPDH data were loge transformed in Example 2, and GPDH data were square root transformed in Example 3.

[2] = test system: bovine preadipocytes isolated from intramuscular (IM) adipose tissue; assay: GPDH activity in bovine IM preadipocytes, 48 h exposure to DEX and IBU (Example 3, FIG. 2); conditions: 48 hours with 25 nM DEX
Experimental: (§6) The cells were grown in a 37° C./5% CO2 incubator. Growth media was replaced every two days until the cells reached confluency (approximately 4 days), at which point the cells were washed twice with phosphate buffered saline (PBS) and differentiation treatments were applied. The differentiation medium consisted of DMEM with 5.5 mM glucose, 100 units/ml penicillin G, 0.1 mg/ml streptomycin sulfate, 0.25 μg/ml amphotericin B, 0.05 mg/ml gentamicin, 33 μM biotin, 17 μM pantothenate, 200 μM ascorbate, 280 nM bovine insulin, and 5 μl/ml bovine serum lipids (Ex-Cyte, Serologicals Corp., Norcross, Ga.). After 48 hours of differentiation media exposure, the cells were washed twice with PBS and differentiation media was replaced every two days for 10 days. […] After treatment for 48 hours, media was changed as previously described until day 10. Cells from two beef steers were used, and duplicates of each steer treatment were done. Adipogenesis was quantitated by measuring GPDH activity. Data were analyzed using the mixed model procedure of SAS (SAS, Cary, N.C.). In all experiments, pooled cells from two wells of a 6 well (35 mm) plate were considered the experimental unit. When main effects were significant (P<0.05), differences between means were evaluated utilizing Tukey's multiple comparison test.

[3] = test system: bovine heterogeneous preadipocyte cultures from intramuscular (IM) adipose tissue; assay: GPDH activity in heterogeneous bovine IM preadipocytes, 12 day exposure with DEX (Example 4, FIG. 3)
Experimental: (§2) Preadipocytes from IM and SC adipose tissue were isolated using a modification of Forest et al., 1987, Exp. Cell Res. 168:218-232. Cells were seeded at a density of 4,160 cells/cm^2 in 35 mm cell culture wells in DMEM with 5.5 mM glucose, supplemented with 100 units/ml penicillin G, 0.1 mg/ml streptomycin sulfate, 0.25 μg/ml amphotericin B, 0.05 mg/ml gentamicin, 33 μM biotin, 17 μM pantothenate, 200 μM ascorbate, 1 mM octanoate, and 10% fetal bovine serum. The cells were grown in a 37° C./5% CO2 incubator. Growth media was replaced every two days until the cells reached confluency (approximately 4 days), at which point the cells were washed twice with phosphate buffered saline (PBS) and differentiation treatments were applied. […]
(§3) Glycerol-3-phosphate dehydrogenase (GPDH) activity was quantified biochemically by measuring GPDH enzyme activity using a modification of a previously published method (Adams et al., J. Clin. Invest. 100:3149-3153).
(§4) Media was changed every two days as previously described until day 12. Adipogenesis was quantitated by measuring GPDH activity.
(§5) Data were analyzed using the mixed model procedure of SAS (SAS, Cary, N.C.). […] When main effects were significant (P<0.05), differences between means were evaluated utilizing Tukey's multiple comparison test. […]

[4] = test system: Heterogeneous SC preadipocytes; assay: GPDH activity in heterogeneous bovine SC preadipocytes, IBU, aspirin or indomethacin for 12 days (Example 5); conditions: for GPDH activity versus control: P<0.001
Experimental: as §1

[5] = test system: bovine heterogeneous preadipocyte cultures from subcutaneous (SC) adipose tissue; assay: GPDH activity in heterogeneous bovine SC preadipocytes, 12 day exposure with DEX (Example 4, FIG. 3)
Experimental: as §2, §3, §4, §5

[6] = test system: bovine preadipocytes isolated from subcutaneous (SC) adipose tissue; assay: GPDH activity in bovine SC preadipocytes, 48 h exposure to DEX and IBU (Example 3, FIG. 2); conditions: IBU for 48 hours with 25 nM DEX
Experimental: as §6

## CC(C)Cc1ccc(C(C)C(=O)O)cc1 (centres unmarked) [IBU, 2-(p-isobutylphenyl)propionic acid]
[1]; IM cells, 1000 μM IBU, 12 days, absence of DEX, P=0.003
  GPDH activity versus control: higher than control
[1]; IM cells, IBU, 12 days, absence of DEX
  maximum induction of GPDH activity: 12 fold over control
[1]; IM preadipocytes, 500 μM IBU, 12 days, absence of DEX
  GPDH activity versus control: enhanced GPDH
[2]; 1000 μM IBU
  effect of IBU on DEX stimulation of GPDH activity: enhanced DEX stimulation of GPDH activity
[2]; 2000 μM IBU
  effect of IBU on DEX stimulation of GPDH activity: enhanced DEX stimulation of GPDH activity
[3]; 100 μM IBU
  effect of IBU on DEX induction of differentiation (GPDH): enhanced DEX induction of differentiation
[3]; 500 μM IBU
  effect of IBU on DEX induction of differentiation (GPDH): enhanced DEX induction of differentiation
[4]; SC cells, IBU, 12 days, absence of DEX
  maximum induction of GPDH activity: 1.7 fold over control
[4]; SC preadipocytes, 10 μM IBU, 12 days, absence of DEX
  GPDH activity versus control: enhanced GPDH activity
[4]; SC preadipocytes, 100 μM IBU, 12 days, absence of DEX
  GPDH activity versus control: enhanced GPDH activity
[4]; SC preadipocytes, 500 μM IBU, 12 days, absence of DEX
  GPDH activity versus control: enhanced GPDH activity
[5]; SC cells, 100 μM IBU
  effect of IBU on DEX induction of differentiation (GPDH): enhanced DEX induction of differentiation
[5]; SC preadipocytes, 1000 μM IBU
  effect of IBU on DEX stimulation of GPDH: reduced DEX stimulation of GPDH
[6]
  effect of IBU on DEX stimulation of GPDH activity: did not enhance DEX stimulation of GPDH activity

## COc1ccc2c(c1)c(CC(=O)O)c(C)n2C(=O)c1ccc(Cl)cc1 [Indomethacin, indomethacin]
[1]; IM preadipocytes, 500 μM, up to 12 days
  toxicity to cells: toxic to cells
[4]; SC preadipocytes, 500 μM, up to 12 days
  toxicity to cells: toxic to cells

## CC(=O)Oc1ccccc1C(=O)O [Aspirin, aspirin]
[1]; IM preadipocytes, 500 μM, 12 days, alone
  GPDH activity, aspirin alone: did not affect GPDH activity; also recorded: did not enhance GPDH activity
[1]; IM preadipocytes, 500 μM, 12 days, with DEX
  GPDH activity, aspirin in combination with DEX: did not enhance GPDH activity
[4]; SC preadipocytes, 500 μM, 12 days, alone
  GPDH activity, aspirin alone: did not affect GPDH activity; also recorded: did not enhance GPDH activity
[4]; SC preadipocytes, 500 μM, 12 days, with DEX
  GPDH activity, aspirin in combination with DEX: did not enhance GPDH activity
